Columns and labels:
[1] = molecular target: T1, Recombinant ROCK2 (amino acids 5-554) (Homo sapiens, UniProt O75116); test: ROCK inhibition assay, LANCE Ultra TR-FRET kinase assay (ROCK2); format: biochemical; settings: 4 μM ATP, 50 nM ULight-CREBtide substrate
T1 construct: ROCK2 (amino acids 5-554); by word order, ROCK2 from SignalChem
In short: (§1)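 Reaction buffer 50 mM HEPES pH 7.5, 10 mM MgCl2, 1 mM EGTA, 2 mM DTT; kinase, ULight-CREBtide (50 nM) and ATP (ROCK1 1 μM, ROCK2 4 μM) react 1 h at room temperature. Phospho-Ser133 detected by europium antibody after 10 mM EDTA stop, TR-FRET ex 320 nm; IC50 calculated.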

[2] = molecular target: T2, Recombinant ROCK1 (amino acids 1-477) (Homo sapiens, UniProt Q13464); test: ROCK inhibition assay, LANCE Ultra TR-FRET kinase assay (ROCK1); format: biochemical; settings: 1 μM ATP, 50 nM ULight-CREBtide substrate
T2 construct: Recombinant ROCK1 (amino acids 1-477); by word order, ROCK1 from Carna Biosciences
In short: as §1

[3] = test system: ROCK1/2 in A7r5 cells (pMLC2 levels); test: Inhibition of ROCK1/2 in A7r5 cells, cell-based ELISA of phospho-myosin light chain (pMLC2, Thr18/Ser19); settings: Rattus norvegicus, 1.5 h, treated with test compounds for 90 minutes, read-out: pMLC2 (cellular EC50)
Experimental: Inhibition of ROCK1/2 in A7r5 cells was measured through cell-based ELISA assay. Rat aortic smooth muscle cell line A7r5 cells were maintained and treated in DMEM medium with 10% fetal bovine serum. Cells were seeded with 5,000 cells/well in 96 well plates for 24 hours and subsequently treated with test compounds for 90 minutes. Cells were then fixed and processed according to the In-Cell ELISA Colrimetric Detection Kit manual (Thermo Scientific). Cellular phospho-myosin light chain (pMLC2, Thr18/Ser19) levels were determined after treatment with DMSO control or a test compound using the In-Cell ELISA kit.
The resulting data was applied to the following formula ‘[1-(compound/DMSO)]×100%’ to calculate the percent inhibition rate. pMLC2 data obtained from 9 points 3-fold serial dilution of compounds were applied to the nonlinear regression curve fit function of the GraphPad Prism software to calculate the cellular EC50 values.

T2 sequence (Q13464 1-477): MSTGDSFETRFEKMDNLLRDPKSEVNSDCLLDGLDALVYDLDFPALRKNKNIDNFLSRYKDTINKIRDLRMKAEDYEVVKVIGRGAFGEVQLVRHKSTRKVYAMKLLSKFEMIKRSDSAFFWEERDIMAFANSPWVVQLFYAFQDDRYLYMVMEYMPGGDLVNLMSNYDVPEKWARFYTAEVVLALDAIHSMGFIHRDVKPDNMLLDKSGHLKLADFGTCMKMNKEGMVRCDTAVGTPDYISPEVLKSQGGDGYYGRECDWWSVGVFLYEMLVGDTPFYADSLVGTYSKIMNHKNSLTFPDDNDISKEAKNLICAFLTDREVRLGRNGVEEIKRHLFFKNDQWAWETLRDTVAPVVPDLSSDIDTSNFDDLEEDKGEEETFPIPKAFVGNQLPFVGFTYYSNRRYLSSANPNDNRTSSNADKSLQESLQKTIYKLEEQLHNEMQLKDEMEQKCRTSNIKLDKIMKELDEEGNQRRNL
T1 sequence (O75116 5-554): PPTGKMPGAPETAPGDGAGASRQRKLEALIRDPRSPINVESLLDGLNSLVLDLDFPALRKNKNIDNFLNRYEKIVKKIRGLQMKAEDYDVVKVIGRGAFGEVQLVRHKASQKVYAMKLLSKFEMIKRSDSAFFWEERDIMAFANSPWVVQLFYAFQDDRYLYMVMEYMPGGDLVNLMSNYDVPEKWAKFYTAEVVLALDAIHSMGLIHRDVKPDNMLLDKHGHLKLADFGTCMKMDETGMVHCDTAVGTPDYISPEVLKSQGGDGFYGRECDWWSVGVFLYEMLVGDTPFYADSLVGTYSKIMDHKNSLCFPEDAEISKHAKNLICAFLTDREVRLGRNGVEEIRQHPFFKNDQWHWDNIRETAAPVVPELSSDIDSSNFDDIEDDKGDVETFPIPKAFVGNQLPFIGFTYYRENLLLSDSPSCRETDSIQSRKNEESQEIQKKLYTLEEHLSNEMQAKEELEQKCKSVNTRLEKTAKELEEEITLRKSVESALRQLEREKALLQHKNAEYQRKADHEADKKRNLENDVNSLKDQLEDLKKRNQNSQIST

| SMILES | IC50 [1] [nM] | IC50 [2] [nM] | EC50 [3] [nM] |
| --- | --- | --- | --- |
| Cc1nocc1-c1ccc2c(=O)n(Cc3cccc(O)c3)ccc2c1 [Compound 10] | < 10 | 11 to 100 | < 100 |
| Cn1nccc1-c1ccc2c(=O)n(Cc3cccc(O)c3)ccc2c1 [Compound 12] | < 10 | 11 to 100 | 101 to 500 |
| COc1cccc(Cn2ccc3cc(-c4ccncc4)ccc3c2=O)c1 [Compound 22] | < 10 | < 10 | < 100 |
| CN(C)Cc1ccccc1Cn1ccc2cc(-c3ccnc(N)c3)ccc2c1=O [Compound 25] | < 10 | 11 to 100 | 101 to 500 |
| Cc1n[nH]cc1-c1ccc2c(=O)n(Cc3cccc(C(=O)NCCc4ccccn4)c3)ccc2c1 [Compound 31] | < 10 | < 10 | < 100 |
| Cc1nocc1-c1ccc2c(=O)n(Cc3cccc(C(=O)NCC4CCN(CC(F)F)CC4)c3)ccc2c1 [Compound 82] | 10 to 100 | 101 to 500 | < 100 |
| Cc1nocc1-c1ccc2c(=O)n(Cc3cccc(C(=O)NC4CCN(CC(F)F)CC4)c3)ccc2c1 [Compound 86] | < 10 | 11 to 100 | < 100 |
| Cc1nocc1-c1ccc2c(=O)n(Cc3cccc(C(=O)NC4COC4)c3)ccc2c1 [Compound 146] | 10 to 100 | 101 to 500 | 501 to 1000 |
| Cn1nccc1-c1ccc2c(=O)n(Cc3cc(F)cc(C(=O)N[C@H]4CC[C@@H](O)CC4)c3)ccc2c1 [Compound 165] | 10 to 100 | 101 to 500 | 501 to 1000 |
| Nc1cc(-c2ccc3c(=O)n(Cc4cccc(C(=O)NCCc5ccccn5)c4)ccc3c2)ccn1 [Compound 186] | < 10 | 11 to 100 | < 100 |
| Nc1cc(-c2ccc3c(=O)n(Cc4cccc(C(=O)Nc5ccc6c(c5)CCNC6)c4)ccc3c2)ccn1 [Compound 188] | < 10 | 11 to 100 | < 100 |
| Cn1ccc(NC(=O)c2cccc(Cn3ccc4cc(-c5ccnc(N)c5)ccc4c3=O)c2)n1 [Compound 200] | < 10 | 11 to 100 | < 100 |
| CNC(=O)c1cc(F)cc(Cn2ccc3cc(-c4conc4C)ccc3c2=O)c1 [Compound 315] | < 10 | 11 to 100 | 501 to 1000 |
| CNC(=O)c1cccc(Cn2ccc3cc(-c4ccnn4C)ccc3c2=O)c1 [Compound 320] | 10 to 100 | 101 to 500 | > 1000 |
| CNC(=O)c1cccc(Cn2ccc3cc(-c4ccnc(N)c4)ccc3c2=O)c1 [Compound 326] | < 10 | 11 to 100 | 101 to 500 |
| CNC(=O)c1cccc([C@@H](C)n2cnc3cc(-c4cn[nH]c4C(F)(F)F)ccc3c2=O)c1 [Compound 440, (R)—N-methyl-3-(1-(4-oxo-7-(5-(trifluoromethyl)-1H-pyrazol-4-yl)quinazolin-3(4H)-yl)ethyl)benzamide] | < 10 | 11 to 100 | 101 to 500 |
| CNC(=O)c1cccc(C(C)n2cc(CCO)c3cc(-c4cn[nH]c4F)ccc3c2=O)c1 (centres unmarked) [Compound 554] | < 10 | 11 to 100 | – |
| CNC(=O)c1cccc(Cn2cc(CCO)c3cc(-c4ccnc(N)c4)ccc3c2=O)c1 [Compound 558] | 10 to 100 | < 10 | – |
| CNC(=O)c1cccc(Cn2cc(CCN(C)C)c3cc(-c4cn[nH]c4Cl)ccc3c2=O)c1 [Compound 564] | < 10 | 11 to 100 | – |
| CNC(=O)c1cccc(Cn2cc(CCN(C)C)c3cc(-c4c[nH]nc4N)ccc3c2=O)c1 [Compound 567] | < 10 | 11 to 100 | – |
| CNC(=O)c1cccc([C@@H](C)n2cnc3cc(-c4cn[nH]c4Cl)ncc3c2=O)c1 [Compound 569] | < 10 | < 10 | – |
| CNC(=O)c1cccc([C@@H](C)n2cnc3cc(-c4cn[nH]c4F)ncc3c2=O)c1 [Compound 570] | < 10 | < 10 | – |
| CNC(=O)c1cccc([C@@H](C)n2cnc3cc(-c4conc4C)ncc3c2=O)c1 [Compound 572] | 10 to 100 | 101 to 500 | – |

Now from value to compound:

| IC50 [1] [nM] | IC50 [2] [nM] | EC50 [3] [nM] | SMILES |
| --- | --- | --- | --- |
| 10 to 100 | > 501 | 101 to 500 | COc1cccc(Cn2ccc3cc(-c4ccnc(N)c4)ccc3c2=O)c1 [Compound 24] |
| 10 to 100 | 101 to 500 | 101 to 500 | Cc1nocc1-c1ccc2c(=O)n(Cc3cccc(C(=O)N[C@H]4CC[C@H](O)CC4)c3)ccc2c1 [Compound 75] |
| < 10 | 11 to 100 | 101 to 500 | Cc1nocc1-c1ccc2c(=O)n(Cc3cccc(C(=O)NC4CCOCC4)c3)ccc2c1 [Compound 77] |
| < 10 | 11 to 100 | 101 to 500 | Cn1nccc1-c1ccc2c(=O)n(Cc3cccc(C(=O)NC4CCN(CC(F)F)CC4)c3)ccc2c1 [Compound 107] |
| < 10 | 11 to 100 | 101 to 500 | Cn1nccc1-c1ccc2c(=O)n(Cc3cccc(C(=O)NC4CCN(CC(F)(F)F)CC4)c3)ccc2c1 [Compound 108] |
| 10 to 100 | 101 to 500 | < 100 | Nc1cc(-c2ccc3c(=O)n(Cc4cccc(C(=O)NCc5ccccc5CO)c4)ccc3c2)ccn1 [Compound 184] |
| < 10 | 11 to 100 | 101 to 500 | CNC(=O)c1cccc(Cn2ccc3cc(-c4cn[nH]c4C(F)(F)F)ncc3c2=O)c1 [Compound 233] |
| < 10 | 101 to 500 | 501 to 1000 | CNC(=O)c1cccc(Cn2ccc3cc(-c4conc4C)ccc3c2=O)c1 [Compound 277] |
| < 10 | 11 to 100 | 501 to 1000 | CNC(=O)c1cccc(Cn2ccc3cc(-c4cn[nH]c4C(F)(F)F)ccc3c2=O)c1 [Compound 280] |
| < 10 | 11 to 100 | 101 to 500 | CNC(=O)c1cc(F)cc(Cn2ccc3cc(-c4cn[nH]c4C(F)(F)F)ccc3c2=O)c1 [Compound 281] |
| 10 to 100 | 101 to 500 | 101 to 500 | CNC(=O)c1cc(F)cc(Cn2ccc3cc(-c4ccnn4C)ccc3c2=O)c1 [Compound 323] |
| < 10 | 11 to 100 | 101 to 500 | Nc1cc(-c2ccc3c(=O)n(Cc4cccc(C(=O)NCCc5ccccn5)c4)cnc3c2)ccn1 [Compound 437] |
| < 10 | 11 to 100 | < 100 | CNC(=O)c1cccc([C@@H](C)n2cnc3cc(-c4cn[nH]c4Cl)ccc3c2=O)c1 [Compound 466] |
| < 10 | 11 to 100 | < 100 | CNC(=O)c1cccc([C@@H](C)n2cnc3cc(-c4conc4C)ccc3c2=O)c1 [Compound 469] |
| < 10 | 11 to 100 | – | CNC(=O)c1cccc(Cn2cc(CCO)c3cc(-c4cn[nH]c4F)ccc3c2=O)c1 [Compound 555] |
| < 10 | 11 to 100 | – | CNC(=O)c1cccc(Cn2cc(CC(C)O)c3cc(-c4cn[nH]c4C(F)F)ccc3c2=O)c1 (centres unmarked) [Compound 559] |
| < 10 | < 10 | – | CNC(=O)c1cccc(Cn2cc(CC(C)O)c3cc(-c4cn[nH]c4Cl)ccc3c2=O)c1 (centres unmarked) [Compound 560] |
| < 10 | 11 to 100 | – | CNC(=O)c1cccc(Cn2cc(CC(C)O)c3cc(-c4c[nH]nc4N)ccc3c2=O)c1 (centres unmarked) [Compound 562] |
| < 10 | 11 to 100 | – | CNC(=O)c1cccc(C(C)n2cc(CCN(C)C)c3cc(-c4cn[nH]c4C(F)(F)F)ccc3c2=O)c1 (centres unmarked) [Compound 563] |
| < 10 | 11 to 100 | – | CNC(=O)c1cccc(C(C)n2cc(CCN(C)C)c3cc(-c4cn[nH]c4Cl)ccc3c2=O)c1 (centres unmarked) [Compound 565] |
| < 10 | 11 to 100 | – | CNC(=O)c1cccc(Cn2cc(CCN(C)C)c3cc(-c4ccnn4C)ccc3c2=O)c1 [Compound 566] |
| < 10 | 11 to 100 | – | CNC(=O)c1cccc([C@@H](C)n2cnc3cc(-c4cn[nH]c4C(F)(F)F)ncc3c2=O)c1 [Compound 568, (R)—N-methyl-3-(1-(4-oxo-7-(5-(trifluoromethyl)-1H-pyrazol-4-yl)pyrido[4,3-d]pyrimidin-3(4H)-yl)ethyl)benzamide] |
| < 10 | 11 to 100 | – | CNC(=O)c1cccc([C@@H](C)n2cnc3cc(-c4cn[nH]c4OC)ncc3c2=O)c1 [Compound 571] |

Reference: patent US12064426B2, “Selective inhibitors of ROCK1 and ROCK2 protein kinases and uses thereof” (GENOSCO Inc., priority 2021, dated 2024)
